One test has as its system post-synaptic Dopamine (D.A.) receptors. The test is described as follows: Inhibition of apomorphine induced climbing in the mouse. As to conditions: dose for 50% inhibition of apomorphine (1 mg/kg s.c.) induced climbing, male CD1 mice, ½ hour post dosing po; 30 min. It is filed as in vivo.
With “4-Chloro- and 6-Chloro-5-amino-2-(3β-N-(9-(4^1-methylbenzyl) -9-azabicyclo[3.3.1]nonyl)]phthalimidine [Compound E8]”, the ED50 is on record as 0.5 mg/kg. The same measure, in the same setting: as for `Cc1ccc(CN2[C@@H]3CCC[C@H]2C[C@H](N2Cc4ccccc4C2=O)C3)cc1` [Compound E1], the figure is 1.1 mg/kg. On the same count and under the same terms, in the case of `Cc1ccc(CN2[C@@H]3CCC[C@H]2C[C@H](N2Cc4cc(Cl)ccc4C2=O)C3)cc1` [Compound E2] it was 0.5 mg/kg. In the case of `O=C1c2ccc(Cl)cc2CN1[C@@H]1C[C@H]2CCC[C@@H](C1)N2Cc1ccc(F)cc1` [Compound E3], the ED50 came out at 1.2 mg/kg. In turn, `Nc1ccc2c(c1)CN([C@@H]1C[C@H]3CCC[C@@H](C1)N3Cc1ccc(F)cc1)C2=O` [Compound E5, 5-Amino-2-(3β-N-(9-(4^1-fluorobenzyl)-9-azabicyclo[3.3.1]nonyl)]phthalimidine] yielded an ED50 of 0.6 mg/kg.

Compound `Cc1ccc(CN2[C@@H]3CCC[C@H]2C[C@H](N2Cc4cc(N)ccc4C2=O)C3)cc1` [Compound E6, 5-Amino-2-[3β-N-(9-(4^1-methylbenzyl)-9-azabicyclo[3.3.1]nonyl)]phthalimidine] registered an ED50 of 0.3 mg/kg.

Staying with this test, now noted: subcutaneous dosing; dose for 50% inhibition of apomorphine (1 mg/kg s.c.) induced climbing, male CD1 mice; 30 min.
`CN(C)S(=O)(=O)c1ccc2c(c1)C(=O)N([C@@H]1C[C@H]3CC[C@@H](C1)N3Cc1ccccc1)C2` [Compound E9, 6-Dimethylaminosulphonyl-2-N-[3β(8-benzyl-8-azabicyclo [3.2.1]octyl)]phthalimidine]: the ED50 was 3.0 (subcutaneous dosing) mg/kg.

These data come from patent publication EP0093488A2, “Nortropyl benzopyrrolinone compounds, process for their preparation and pharmaceutical compositions containing them” (BEECHAM GROUP PLC, priority 1982, dated 1983).
